Assay results taken from patent US4401660A, “Ester derivatives of 5-O-mycaminosyl tylonolide and method of using same” (Eli Lilly and Company, priority 1981, dated 1983).

What was measured:
Assay type in all cases: cell-based
Parameters in all cases: unit not given here
[1] = tested on: Haemophilus influenzae R252; assay: MIC, standard agar-dilution assay (Table II); settings: Haemophilus influenzae R252, ampicillin-resistant strain
Protocol: (§1) The MIC's in Table II were determined by standard agar-dilution assays. The MIC's in Table III were obtained using a conventional broth-dilution microtiter test.

[2] = tested on: Staphylococcus aureus S13E; assay: MIC, standard agar-dilution assay (Table II)
Protocol: as §1

[3] = tested on: Staphylococcus aureus V41; assay: MIC, standard agar-dilution assay (Table II); settings: Staphylococcus aureus V41, penicillin-resistant strain
Protocol: as §1

[4] = tested on: Staphylococcus aureus X1.1; assay: MIC, standard agar-dilution assay (Table II)
Protocol: as §1

[5] = tested on: Staphylococcus aureus X400; assay: MIC, standard agar-dilution assay (Table II); settings: Staphylococcus aureus X400, methicillin-resistant strain
Protocol: as §1

[6] = tested on: Staphylococcus epidermidis EPI1; assay: MIC, standard agar-dilution assay (Table II)
Protocol: as §1

[7] = tested on: Staphylococcus epidermidis EPI2; assay: MIC, standard agar-dilution assay (Table II)
Protocol: as §1

[8] = tested on: Streptococcus Group D 9960; assay: MIC, standard agar-dilution assay (Table II)
Protocol: as §1

[9] = tested on: Streptococcus Group D X66; assay: MIC, standard agar-dilution assay (Table II)
Protocol: as §1

[10] = tested on: Streptococcus pneumoniae Park I; assay: MIC, standard agar-dilution assay (Table II)
Protocol: as §1

[11] = tested on: Streptococcus pyogenes C203; assay: MIC, standard agar-dilution assay (Table II)
Protocol: as §1

Mycoplasma gallisepticum = assay: MIC, broth-dilution microtiter test (Table III)
Protocol: as §1

Mycoplasma hyorhinis = assay: MIC, broth-dilution microtiter test (Table III)
Protocol: as §1

Mycoplasma synoviae = assay: MIC, broth-dilution microtiter test (Table III)
Protocol: as §1

[12] = tested on: Pasteurella haemolytica 22C; assay: MIC, broth-dilution microtiter test (Table III)
Protocol: as §1

[13] = tested on: Pasteurella haemolytica 23C; assay: MIC, broth-dilution microtiter test (Table III)
Protocol: as §1

[14] = tested on: Pasteurella haemolytica 41D; assay: MIC, broth-dilution microtiter test (Table III)
Protocol: as §1

[15] = tested on: Pasteurella multocida 17E; assay: MIC, broth-dilution microtiter test (Table III); settings: bovine isolate
Protocol: as §1

[16] = tested on: Pasteurella multocida 22A; assay: MIC, broth-dilution microtiter test (Table III)
Protocol: as §1

[17] = tested on: Pasteurella multocida 40G; assay: MIC, broth-dilution microtiter test (Table III)
Protocol: as §1

[18] = tested on: Pasteurella multocida 60A; assay: MIC, broth-dilution microtiter test (Table III); settings: avian isolate
Protocol: as §1

[19] = tested on: Pasteurella multocida 68C; assay: MIC, broth-dilution microtiter test (Table III)
Protocol: as §1

Staphylococcus aureus = assay: MIC, broth-dilution microtiter test (Table III)
Protocol: as §1

Streptococcus sp. 80 = assay: MIC, broth-dilution microtiter test (Table III)
Protocol: as §1

[20] = tested on: Haemophilus influenzae Holt; assay: MIC, standard agar-dilution assay (Table II); settings: ampicillin-sensitive strain
Protocol: as §1

CCC1OC(=O)CC(O)C(C)C(OC2OC(C)C(O)C(N(C)C)C2OC(C)=O)C(CC=O)CC(C)C(=O)C=CC(C)=CC1COC(=O)C(Cl)(Cl)Cl (stereo not shown) [Compound 77]
minimal inhibitory concentration (MIC) [1]: 1
minimal inhibitory concentration (MIC) [2]: 1
minimal inhibitory concentration (MIC) [3]: 2
minimal inhibitory concentration (MIC) [4]: 1
minimal inhibitory concentration (MIC) [5]: 2
minimal inhibitory concentration (MIC) [6]: 1
minimal inhibitory concentration (MIC) [7]: 2
minimal inhibitory concentration (MIC) [8]: 1
minimal inhibitory concentration (MIC) [9]: 1
minimal inhibitory concentration (MIC) [10]: 0.25
minimal inhibitory concentration (MIC) [11]: 0.25
minimal inhibitory concentration (MIC) (Mycoplasma gallisepticum): 0.78
minimal inhibitory concentration (MIC) (Mycoplasma hyorhinis): 3.12
minimal inhibitory concentration (MIC) (Mycoplasma synoviae): 0.78
minimal inhibitory concentration (MIC) [12]: 12.5
minimal inhibitory concentration (MIC) [13]: 12.5
minimal inhibitory concentration (MIC) [14]: 12.5
minimal inhibitory concentration (MIC) [15]: 3.12
minimal inhibitory concentration (MIC) [16]: 50
minimal inhibitory concentration (MIC) [17]: 25
minimal inhibitory concentration (MIC) [18]: 3.12
minimal inhibitory concentration (MIC) [19]: 25
minimal inhibitory concentration (MIC) (Staphylococcus aureus): 1.56
minimal inhibitory concentration (MIC) (Streptococcus sp. 80): 0.78

CCC1OC(=O)CC(O)C(C)C(OC2OC(C)C(O)C(N(C)C)C2OC(C)=O)C(CC=O)CC(C)C(=O)C=CC(C)=CC1COC(=O)CCCCc1ccccc1 (stereo not shown) [Compound 60]
minimal inhibitory concentration (MIC) [20]: 2
minimal inhibitory concentration (MIC) [1]: 2
minimal inhibitory concentration (MIC) [2]: 0.25
minimal inhibitory concentration (MIC) [3]: 0.25
minimal inhibitory concentration (MIC) [4]: 0.25
minimal inhibitory concentration (MIC) [5]: 0.25
minimal inhibitory concentration (MIC) [6]: 0.25
minimal inhibitory concentration (MIC) [7]: 0.5
minimal inhibitory concentration (MIC) [8]: 0.25
minimal inhibitory concentration (MIC) [9]: 0.25
minimal inhibitory concentration (MIC) [10]: 0.125
minimal inhibitory concentration (MIC) [11]: 0.25
minimal inhibitory concentration (MIC) (Mycoplasma gallisepticum): < 0.05
minimal inhibitory concentration (MIC) (Mycoplasma hyorhinis): 6.25
minimal inhibitory concentration (MIC) (Mycoplasma synoviae): 0.78
minimal inhibitory concentration (MIC) [12]: 6.25
minimal inhibitory concentration (MIC) [13]: 6.25
minimal inhibitory concentration (MIC) [14]: 6.25
minimal inhibitory concentration (MIC) [15]: 3.12
minimal inhibitory concentration (MIC) [16]: 3.12
minimal inhibitory concentration (MIC) [17]: 12.5
minimal inhibitory concentration (MIC) [18]: 3.12
minimal inhibitory concentration (MIC) [19]: 1.56
minimal inhibitory concentration (MIC) (Staphylococcus aureus): 0.39
minimal inhibitory concentration (MIC) (Streptococcus sp. 80): 0.39

CCC1OC(=O)CC(O)C(C)C(OC2OC(C)C(OC(=O)CC(C)C)C(N(C)C)C2OC(C)=O)C(CC=O)CC(C)C(=O)C=CC(C)=CC1COC(=O)CC(C)C (stereo not shown) [Compound 50, 2'-O-Acetyl-4',23-di-O-isovaleryl-OMT]
minimal inhibitory concentration (MIC) [2]: 1
minimal inhibitory concentration (MIC) [3]: 2
minimal inhibitory concentration (MIC) [4]: 1
minimal inhibitory concentration (MIC) [5]: 2
minimal inhibitory concentration (MIC) [6]: 1
minimal inhibitory concentration (MIC) [7]: 1
minimal inhibitory concentration (MIC) [8]: 1
minimal inhibitory concentration (MIC) [9]: 1
minimal inhibitory concentration (MIC) [10]: 0.5
minimal inhibitory concentration (MIC) [11]: 1
minimal inhibitory concentration (MIC) (Mycoplasma gallisepticum): 0.195
minimal inhibitory concentration (MIC) (Mycoplasma hyorhinis): 6.25
minimal inhibitory concentration (MIC) (Mycoplasma synoviae): 1.56
minimal inhibitory concentration (MIC) [12]: 25
minimal inhibitory concentration (MIC) [13]: 25
minimal inhibitory concentration (MIC) [14]: 25
minimal inhibitory concentration (MIC) [15]: 12.5
minimal inhibitory concentration (MIC) [16]: 25
minimal inhibitory concentration (MIC) [17]: 3.12
minimal inhibitory concentration (MIC) [18]: 6.25
minimal inhibitory concentration (MIC) [19]: 6.25
minimal inhibitory concentration (MIC) (Staphylococcus aureus): 0.39
minimal inhibitory concentration (MIC) (Streptococcus sp. 80): 0.39

CCC(=O)OC1C(OC2C(CC=O)CC(C)C(=O)C=CC(C)=CC(CO)C(CC)OC(=O)CC(O)C2C)OC(C)C(O)C1N(C)C (stereo not shown) [Compound 2, 2'-O-Propionyl-OMT]
minimal inhibitory concentration (MIC) [20]: 4
minimal inhibitory concentration (MIC) [1]: 4
minimal inhibitory concentration (MIC) [2]: 2
minimal inhibitory concentration (MIC) [3]: 4
minimal inhibitory concentration (MIC) [4]: 2
minimal inhibitory concentration (MIC) [5]: 4
minimal inhibitory concentration (MIC) [6]: 1
minimal inhibitory concentration (MIC) [7]: 1
minimal inhibitory concentration (MIC) [8]: 2
minimal inhibitory concentration (MIC) [9]: 2
minimal inhibitory concentration (MIC) [10]: 8
minimal inhibitory concentration (MIC) [11]: 0.5
minimal inhibitory concentration (MIC) (Mycoplasma gallisepticum): 0.39
minimal inhibitory concentration (MIC) (Mycoplasma hyorhinis): 3.12
minimal inhibitory concentration (MIC) (Mycoplasma synoviae): 0.78
minimal inhibitory concentration (MIC) [12]: 12.5
minimal inhibitory concentration (MIC) [13]: 12.5
minimal inhibitory concentration (MIC) [14]: 12.5
minimal inhibitory concentration (MIC) [15]: 3.12
minimal inhibitory concentration (MIC) [16]: 3.12
minimal inhibitory concentration (MIC) [17]: 6.25
minimal inhibitory concentration (MIC) [18]: 1.56
minimal inhibitory concentration (MIC) [19]: 3.12
minimal inhibitory concentration (MIC) (Staphylococcus aureus): 3.12
minimal inhibitory concentration (MIC) (Streptococcus sp. 80): < 0.78

CCC1OC(=O)CC(O)C(C)C(OC2OC(C)C(OC(=O)c3ccccc3)C(N(C)C)C2OC(=O)c2ccccc2)C(CC=O)CC(C)C(=O)C=CC(C)=CC1CO (stereo not shown) [Compound 5, 2',4'-Di-O-benzoyl-OMT]
minimal inhibitory concentration (MIC) [20]: 64
minimal inhibitory concentration (MIC) [1]: 64
minimal inhibitory concentration (MIC) [2]: 32
minimal inhibitory concentration (MIC) [3]: 32
minimal inhibitory concentration (MIC) [4]: 8
minimal inhibitory concentration (MIC) [5]: 64
minimal inhibitory concentration (MIC) [6]: 8
minimal inhibitory concentration (MIC) [7]: 4
minimal inhibitory concentration (MIC) [8]: 8
minimal inhibitory concentration (MIC) [9]: 8
minimal inhibitory concentration (MIC) [10]: 0.5
minimal inhibitory concentration (MIC) [11]: 2
minimal inhibitory concentration (MIC) (Mycoplasma gallisepticum): 12.5
minimal inhibitory concentration (MIC) (Mycoplasma hyorhinis): 50
minimal inhibitory concentration (MIC) (Mycoplasma synoviae): 12.5
minimal inhibitory concentration (MIC) [12]: > 50
minimal inhibitory concentration (MIC) [13]: > 50
minimal inhibitory concentration (MIC) [14]: > 50
minimal inhibitory concentration (MIC) [15]: 50
minimal inhibitory concentration (MIC) [16]: > 50
minimal inhibitory concentration (MIC) [17]: 50
minimal inhibitory concentration (MIC) [18]: 50
minimal inhibitory concentration (MIC) [19]: 25
minimal inhibitory concentration (MIC) (Staphylococcus aureus): 6.25
minimal inhibitory concentration (MIC) (Streptococcus sp. 80): 3.12

CCC1OC(=O)CC(O)C(C)C(OC2OC(C)C(OC(=O)CC(C)C)C(N(C)C)C2OC(C)=O)C(CC=O)CC(C)C(=O)C=CC(C)=CC1COC(C)=O (stereo not shown) [Compound 51, 2',23-Di-O-Acetyl-4'-O-isovaleryl-OMT]
minimal inhibitory concentration (MIC) [2]: 0.5
minimal inhibitory concentration (MIC) [3]: 1
minimal inhibitory concentration (MIC) [4]: 1
minimal inhibitory concentration (MIC) [5]: 1
minimal inhibitory concentration (MIC) [6]: 0.5
minimal inhibitory concentration (MIC) [7]: 1
minimal inhibitory concentration (MIC) [8]: 1
minimal inhibitory concentration (MIC) [9]: 1
minimal inhibitory concentration (MIC) [10]: 0.125
minimal inhibitory concentration (MIC) [11]: 0.25
minimal inhibitory concentration (MIC) (Mycoplasma gallisepticum): < 0.05
minimal inhibitory concentration (MIC) (Mycoplasma hyorhinis): 6.25
minimal inhibitory concentration (MIC) (Mycoplasma synoviae): 0.78
minimal inhibitory concentration (MIC) [12]: 3.12
minimal inhibitory concentration (MIC) [13]: 3.12
minimal inhibitory concentration (MIC) [14]: 3.12
minimal inhibitory concentration (MIC) [15]: 3.12
minimal inhibitory concentration (MIC) [16]: 6.25
minimal inhibitory concentration (MIC) [17]: 3.12
minimal inhibitory concentration (MIC) [18]: 3.12
minimal inhibitory concentration (MIC) [19]: 3.12
minimal inhibitory concentration (MIC) (Staphylococcus aureus): 0.78
minimal inhibitory concentration (MIC) (Streptococcus sp. 80): 0.78
